Square brackets hold non-standard residues; d marks the D form. Ends that are not written are not given here. Peptide text beside a SMILES is read from it. Sar = CNCC(=O)O
System: BAAE cells
Assay type: cell-based, bovine
Settings: for antagonist activity to both basal and bFGF-stimulated endothelial cell growth: result in words; for reducing cell population, bFGF-stimulated endothelial cell growth / reducing cell population, basal endothelial cell growth: manner of Example II, concentration not given
Description: To determine the effectiveness of the bFGF fragment peptide to inhibit the growth of endothelial cells, the peptide is tested under conditions to measure its ability to modulate both basal cell growth and bFGF-simulated cell proliferation. A bioassay was employed of the type set forth in detail in Gospodarowicz et al., J. Cell Biol., 122, 323-333 (1985), using BAAE cells.
For each test, an initial cell density of between about 0.3-0.5×10^4 cells per well was established in 24-miniwell plates. After 6-8 hours, the cells in each well were treated with a challenge dose of bFGF in the absence, or presence to a varying concentration, of a synthetic FGF antagonist. The precise treatment was repeated 48 hours later. On the fifth day, the cells were digested with trypsin, and the total number of cells in each well was determined using a Coulter particle counter.

| Molecule | ID50 | antagonist activity to both basal and bFGF-stimulated endothelial cell growth | reducing cell population, bFGF-stimulated endothelial cell growth | reducing cell population, basal endothelial cell growth |
| --- | --- | --- | --- | --- |
| YCKNGGFFLRIHPDGRVDGVREKSDPHIKLQLQAEERGVVSIKGV [bFGF(24-68)-OH] | about 5 micromolar |  |  |  |
| H-FFLRIHPDGRVDGVREKSDP-NH2 [bFGF(30-49)-NH2, H-Phe-Phe-Leu-Arg-Ile-His-Pro-Asp-Gly-Arg-Val-Asp-Gly-Val-Arg-Glu-Lys-Ser- Asp-Pro-NH2] |  | full antagonist activity |  |  |
| CC[C@H](C)[C@H](NC(=O)[C@H](CO)NC(=O)[C@@H](NC(=O)[C@@H](NC(=O)CNC(=O)[C@H](CCCNC(=N)N)NC(=O)[C@H](CCC(=O)O)NC(=O)[C@H](CCC(=O)O)NC(=O)[C@H](C)NC(=O)[C@H](CCC(N)=O)NC(=O)[C@H](CC(C)C)NC(=O)[C@H](CCC(N)=O)NC(=O)[C@H](CC(C)C)NC(=O)[C@H](CCCCN)NC(=O)[C@@H](NC(=O)[C@H](Cc1c[nH]cn1)NC(=O)[C@@H]1CCCN1C(=O)[C@H](CC(=O)O)NC(=O)[C@H](CO)NC(=O)[C@H](CCCCN)NC(=O)[C@H](CCC(=O)O)NC(=O)[C@H](CCCNC(=N)N)NC(=O)[C@@H](NC(=O)CN(C)C(=O)[C@H](CC(=O)O)NC(=O)[C@@H](NC(=O)[C@H](CCCNC(=N)N)NC(=O)CNC(=O)[C@H](CC(=O)O)NC(=O)[C@@H]1CCCN1)C(C)C)C(C)C)[C@@H](C)CC)C(C)C)C(C)C)C(=O)N[C@@H](CCCCN)C(=O)NCC(=O)N[C@H](C(N)=O)C(C)C [[Sar42]-bFGF(36-68)-NH2] (H-PDGRVD[Sar]VREKSDPHIKLQLQAEERGVVSIKGV-NH2) |  | full antagonist activity |  |  |
| H-LRIHPDGR-NH2 [bFGF(32-39)-NHz, H-Leu-Arg-Ile-His-Pro-Asp-Gly-Arg-NH2] |  | full antagonist activity | about 11% | about 37% |
| H-YFLRIHPDGRVDGVREKSDPY-OH [[Tyr30,50]-bFGF(30-50)-OH, H-Tyr-Phe-Leu-Arg-Ile-His-Pro-Asp-Gly-Arg-Val-Asp-Gly-Val-Arg-Glu-Lys-Ser- Asp-Pro-Tyr-OH] |  | full antagonist activity |  |  |
| YCKNGGFFLRIHPDGRVDGVREKSDPHIKLQLQAEERGVV-NH2 [bFGF(24-63)-NH2, H-Tyr-Cys-Lys-Asn-Gly-Gly-Phe-Phe-Leu-Arg-Ile-His-Pro-Asp-Gly-Arg-Val-Asp- Gly-Val-Arg-Glu-LysSer-Asp-Pro-His-Ile-Lys-Leu-Gln-T-Gln-Ala -Glu-Glu-Arg-Gly-Val-Val-NH2] |  | full antagonist activity |  |  |
| H-LRIHPDGRVDGVREKSDPHIKL-NH2 [bFGF(32-53)-NHz, H-Leu-Arg-Ile-His-Pro-Asp-Gly-Arg-Val-Asp-Gly-Val-Arg-Glu-Lys-Ser-Asp-Pro- His-Ile-Lys-Leu-NH2] |  | weak antagonist activity |  |  |
| H-HPDGRVDGVREKSDPH-NH2 [bFGF(35-50)-NH2, H-His-Pro-Asp-Gly-Arg-Val-Asp-Gly-Val-Arg-Glu-Lys-Ser-Asp-Pro-His-NH2] |  | full antagonist activity |  |  |
| N=C(N)NCCC[C@H](NC(=O)CNC(=O)[C@H](CC(=O)O)NC(=O)[C@@H]1CCCN1)C(N)=O [bFGF(36-39)-NH2, H-Pro-Asp-Gly-Arg-NH2] (H-PDGR-NH2) | 30 to 50 µM | full antagonist activity | about 54% | about 37% |
| H-FFLRIHPDGRVDGVREKSDPY-NH2 [[Tyr^50]-bFGF(30-50)-NHz, H-Phe-Phe-Leu-Arg-Ile-His-Pro-Asp-Gly-Arg-Val-Asp-Gly-Val-Arg-Glu-Lys-Ser- Asp-Pro-Tyr-NH2] |  | full antagonist activity | about 6% | about 19% |

Reference: patent publication US5252718A, “Fibroblast growth factor antagonists” (The Salk Institute for Biological Studies, priority 1992, dated 1993)
